Like-named read-outs stand apart in the source and are kept apart here.
Experiments:
P. falciparum strain 3D7 = assay: Anti-plasmodial activity assay (SYBR-Safe); type: cell-based, Plasmodium falciparum
Procedure: Next the effects of the thiamine/ThDP analogues on in vitro proliferation of the 3D7 strain of P. falciparum were determined. […] Parasite proliferation was measured by SYBR-Safe assay of parasite DNA.[11],[15]
Cell-based assays (Results)
Anti-plasmodial activity assay. This study used human malaria parasite P. falciparum strain 3D7 (chloroquine-sensitive) and the same strain expressing an extra copy of TPK with a GFP-tag ( PfTPK-GFP) generated as previously described. 9 The intraerythrocytic stage of the parasites were maintained essentially as previously described. 10 Compounds were tested at concentrations up to a highest final […]
were prepared in dimethyl sulfoxide (DMSO) followed by dilution in RPMI 1640 medium in the absence of thiamine or in the presence of 2.97 µM (or 297 µM) thiamine. The final concentration of DMSO that the parasites were exposed to never exceeded 0.05%. Two-fold serial dilutions were then performed, with each concentration tested in triplicate. The assay was performed as described 11 with some modifications. Experiments were initiated with parasites in the ring-stage, a parasitemia level of 0.5% and a haematocrit of 2%. Chloroquine (0.5 µM) was used as the positive control ( i.e. complete inhibition of parasite proliferation), and parasites maintained in the absence of any inhibitor represented 100% parasite proliferation. The final volume in each well was 200 µL. Plates were incubated at 37 °C, under an atmosphere of 96% nitrogen, 3% carbon dioxide and 1% oxygen. Parasite proliferation was measured by performing SYBR-Safe assay. 12 The concentration at which the compound suppresses […]
Excel and analysed by non-linear regression plot using GraphPad Prism. The data were averaged from three independent experiments. […]

porcine PDHc E1 = biological target: T1, porcine PDHc E1 (Sus scrofa, UniProt P29804); assay: PDHc E1 inhibitory activity assay (DCPIP reduction); type: biochemical; conditions: for L.E. (ligand efficiency) PDHc E1: binding energy in kcal mol^–1 derived from the KI value per heavy atom
T1 sequence (P29804 31-390): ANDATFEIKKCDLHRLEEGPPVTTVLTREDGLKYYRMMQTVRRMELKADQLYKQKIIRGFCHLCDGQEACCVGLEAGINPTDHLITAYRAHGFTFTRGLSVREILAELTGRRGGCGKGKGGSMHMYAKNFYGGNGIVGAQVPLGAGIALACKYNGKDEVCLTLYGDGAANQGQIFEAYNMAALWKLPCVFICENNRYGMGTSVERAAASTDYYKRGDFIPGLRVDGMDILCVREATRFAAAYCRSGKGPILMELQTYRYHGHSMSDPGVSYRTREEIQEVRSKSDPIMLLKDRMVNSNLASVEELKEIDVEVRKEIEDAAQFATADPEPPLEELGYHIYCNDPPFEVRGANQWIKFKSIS
Procedure: Enzyme assays – Methods and Results S1
Ligand efficiencies – Calculations S3 […]
Enzyme assays (Methods and Results)
PDHc E1 inhibitory activity assay. Porcine PDHc E1 was purchased from Sigma. Its activity was […]
determined by monitoring 2,6-dichlorophenolindophenol (DCPIP) reduction at 600 nm using a […]
microplate reader (CLARIOstar) and conducted as described 1,2 with some modifications. The percentage inhibition of compounds against porcine PDHc E1 was assayed at a final concentration of 250 µM. The reaction buffer (50 mM KH 2PO4 and 1 mM MgCl 2, pH 7) contained 50 µM ThDP (or 125 µM in the competition assay), 0.25 mM DCPIP, and 2 mg/ml porcine PDHc E1. The reaction mixture […]
was preincubated at 37 °C for 30 min, then the reaction was initiated by adding pyruvate to a final […]
concentration of 50 mM. To determine the half-maximal inhibitory concentration (IC 50 ), ThDP […]
concentration was lowered to 10 µM, and inhibitor concentration was varied (0.4-200 µM). Specific […]
activity was calculated using the molar extinction coefficient of DCPIP, 21 mM -1 cm-1.3 The enzyme […]
IC50 values were calculated from non-linear regression curve fitting using GraphPad Prism.

A. viridans PO = biological target: T2, A. viridans PO (Aerococcus viridans, UniProt A9X9K8); assay: A. viridans PO inhibitory activity assay (quinoneimine dye); type: biochemical; conditions: for IC50: [ThDP] 50 μM; for Ki: determined according to the KM for ThDP
T2 sequence (A9X9K8 1-592): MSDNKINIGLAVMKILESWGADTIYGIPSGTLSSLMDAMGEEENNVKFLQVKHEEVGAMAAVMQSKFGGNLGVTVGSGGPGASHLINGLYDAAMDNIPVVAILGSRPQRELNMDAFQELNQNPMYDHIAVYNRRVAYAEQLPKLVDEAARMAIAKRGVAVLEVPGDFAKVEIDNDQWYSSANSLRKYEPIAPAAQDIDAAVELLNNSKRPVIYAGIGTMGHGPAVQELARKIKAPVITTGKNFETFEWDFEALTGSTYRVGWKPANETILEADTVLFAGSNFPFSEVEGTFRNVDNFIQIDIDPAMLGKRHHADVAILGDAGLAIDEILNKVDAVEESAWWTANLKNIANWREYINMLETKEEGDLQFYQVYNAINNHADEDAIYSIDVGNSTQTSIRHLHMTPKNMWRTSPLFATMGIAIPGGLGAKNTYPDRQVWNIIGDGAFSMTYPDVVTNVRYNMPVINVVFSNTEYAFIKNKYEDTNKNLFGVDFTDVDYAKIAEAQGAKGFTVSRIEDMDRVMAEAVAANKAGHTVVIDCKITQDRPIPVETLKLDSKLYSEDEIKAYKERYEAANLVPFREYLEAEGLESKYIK
Procedure: A. viridans PO inhibitory activity assay. A. viridans PO and horseradish peroxidase were purchased from Sigma. A. viridans PO activity was determined by monitoring appearance of quinoneimine dye at 550 nm using a microplate reader (CLARIOstar) and conducted as described 1 with some modifications.
The percentage inhibition of compounds against A. viridans PO was assayed at a final concentration of 250 µM. The reaction buffer (50 mM KH 2PO4 and 10 mM MgCl 2, pH 5.9) contained 50 µM ThDP (or 125 µM in the competition assay), 10 µM flavin adenine dinucleotide (FAD), 0.15% 4-Aminoantipyrine, 0.3% N-Ethyl-N-(2-hydroxy-3-sulfopropyl)-m-toluidine (EHSPT), 50 µg/mL horseradish peroxidase and 0.35 U/mL A. viridans PO. The reaction mixture was preincubated at 37 °C for 30 min, then reaction was initiated by adding pyruvate to a final concentration of 50 mM. To determine the IC 50, inhibitor concentration was varied (2-1000 µM) with ThDP concentration at 50 µM. 1 unit of PO activity is defined as 1 μmol of hydrogen peroxide produced per minute. The enzyme IC 50 values were calculated as described for the PDHc E1 assay. […]

[1] = Plasmodium falciparum, 3D7, 3D7, [Thiamine] = 2.97 μM, read-out: IC50 of Suppression of P. falciparum proliferation, [Thiamine] = 2.97 μM
[2] = Plasmodium falciparum, 3D7, 3D7, [Thiamine] = 297 μM, read-out: IC50 of Suppression of P. falciparum proliferation, [Thiamine] = 297 μM
[3] = Plasmodium falciparum, 3D7, 3D7, thiamine-free medium, read-out: IC50 of Suppression of P. falciparum proliferation, Thiamine-free
[4] = [Compound] = 250 μM, [ThDP] = 50 μM
[5] = increased ThDP: [Compound] = 250 μM, [ThDP] = 125 μM

| Compound | IC50 (P. falciparum strain 3D7; [1]) [µM] | IC50 (P. falciparum strain 3D7; [2]) [µM] | IC50 (P. falciparum strain 3D7; [3]) [µM] | Inhibition (%) PDHc E1 (porcine PDHc E1; [4]) [%] | Inhibition (%) PDHc E1 (porcine PDHc E1; [5]) [%] | Inhibition (%) PO (A. viridans PO; [4]) [%] | Inhibition (%) PO (A. viridans PO; [5]) [%] | Ki (porcine PDHc E1) [µM] | L.E. (ligand efficiency) PDHc E1 (porcine PDHc E1) | fold more potent than 17c at inhibiting proliferation of the parasites (P. falciparum strain 3D7) [fold] | IC50 (P. falciparum strain 3D7; 3D7, thiamine-free medium, read-out: IC50 of Suppression of P. falciparum proliferation, Thiamine-free) [µM] | fold more active than 24c (anti-plasmodial) (P. falciparum strain 3D7; thiamine-free culture medium) [fold] | IC50 (A. viridans PO) [µM] | Ki (A. viridans PO) [µM] |
| --- | --- | --- | --- | --- | --- | --- | --- | --- | --- | --- | --- | --- | --- | --- |
| Cc1ncc(Cn2cc(CCCn3cc(-c4ccc(F)cc4)nn3)nn2)c(N)n1 [Compound 16b] | > 200 | > 200 | > 200 | 66 ± 4 | 43 ± 2 | < 20 | <20 | – | – | – | – | – | – | – |
| Cc1ncc(Cn2cc(CCCCn3cc(-c4ccc(F)cc4)nn3)nn2)c(N)n1 [Compound 16c] | 70 ± 8 | 89 ± 19 | 67 ± 5 | > 90 | 79 ± 2 | < 20 | <20 | – | – | – | – | – | – | – |
| COc1ccc(-c2cn(CCc3cn(Cc4cnc(C)nc4N)nn3)nn2)cc1 [Compound 17a] | 156 ± 13 | 169 ± 11 | 129 ± 9 | 46 ± 4 | <20 | < 20 | <20 | – | – | – | – | – | – | – |
| COc1ccc(-c2cn(CCCc3cn(Cc4cnc(C)nc4N)nn3)nn2)cc1 [Compound 17b] | 78 ± 8 | 82 ± 11 | 51 ± 3 | 71 ± 2 | 45 ± 3 | < 20 | <20 | – | – | – | – | – | – | – |
| COc1ccc(-c2cn(CCCCc3cn(Cc4cnc(C)nc4N)nn3)nn2)cc1 [Compound 17c] | 62 ± 7 | 69 ± 9 | 44 ± 2 | > 90 | 82 ± 4 | < 20 | <20 | 0.03 | 0.34 | – | – | – | – | – |
| Cc1ncc(Cn2cc(CCCC(=O)NO)nn2)c(N)n1 [Compound 24b] | 1.3 ± 0.2 | 1.4 ± 0.4 | 0.9 to 3 | > 90 | 70 ± 3 | 35 ± 5 | 27 ± 4 | – | 0.50 | ~50 | 0.9 ± 0.1 | 3 | 202 ± 19 | 20.2 |
| Cc1ncc(Cn2cc(CCCCC(=O)NO)nn2)c(N)n1 [Compound 24c] | 3.8 ± 2 | 4 ± 1.8 | – | > 90 | 73 ± 4 | 42 ± 5 | 24 ± 4 | – | 0.48 | – | – | – | 232 ± 23 | 23.2 |
